pIC50: −log10 of the molar value. Structures can show the parent of a compound that is named as a salt. Where two headings read alike, the source gives them in different places. A value given as a limit tells only on which side of the number the result lay.

These results are taken from US12540143B2, “Methods and compositions for targeted protein degradation” (Ranok Therapeutics (Hangzhou) Co. Ltd., priority 2019, dated 2026).

One experiment deals with HSP90α (Homo sapiens, UniProt P07900). Description: HSP90α Binding Fluorescent Polarization (FP) Assay. The following applies: competition with FITC-geldanamycin; read-out: HSP90 Binding Potency. The procedure:
HSP90α Binding Fluorescent Polarization (FP) Assay
A master mix was prepared with assay buffer, BSA and FITC-geldanamycin. In a 96-well plate, a serial 3-fold dilution of each compound was prepared ranging from 40 μM down until 2.0 nM. Also in a 96-well plate, recombinant HSP90α protein was diluted to 28 μg/ml. Then, in a 384-well plate, 10 μl of master mix and 5 μl of compound dilution were added per well to duplicate wells and mixed by brief shaking. Then 5 μl of diluted HSP90α protein was added per well, mixed by brief shaking, incubated at 25° C. for 30, 60 and 120 min and fluorescence was measured on an En Vision Plate Reader. Background-subtracted mP values were calculated from En Vision raw data and a four-parameter “log[inhibitor] vs. response” curve was fitted using GraphPad Prism 7.0.

The next experiment deals with MV4-11 cells. Description: MV4-11 Cytotoxicity Assay. Format: cell-based, human. The settings on record: Homo sapiens, read-out: MV4-11 cytotoxicity.
Another experiment deals with T1, BRD4 (Homo sapiens, UniProt O60885).
T1 construct: endogenous in cells; host or cells: MV4-11
Description: BRD4 Degradation Flow Cytometry Assay in MV4-11 cells. Format: cell-based. The following applies: for Percentage BRD4 degradation vs untreated: 24 hr, highest degradation percentage observed at concentrations between 40-1000 nM. The procedure: Protein Degradation Flow Cytometry
MV4-11 cells were plated in a 24-well tissue culture plate at a density of 350,000 cells/450 μL/well and incubated in 37° C./5% CO2 for 1 hr. Cells were then treated with compounds at various concentrations and incubated in 37° C./5% CO2 for 24 hr. Cells were harvested, washed once, counted and 200 μL of 1% paraformaldehyde/PBS was added and incubated for 15 min at room temperature. 200 μL of 1×PBS/0.4% Triton X-100 was added and incubated for 15 min at 4° C. Cells were washed three times and resuspended in 50 μL of 1×PBS/0.2% Triton X-100. 2 μL/10^6 cells of anti-BRD4 antibody (ABCAM, #128874) was added and mixed by pipetting up and down. Cells were incubated for 30 min at room temperature in the dark, washed three times and resuspended in 50 μL of 1×PBS/0.2% Triton X-100. Goat anti-rabbit IgG H&L antibody (1:2000 dilution) was added and mixed by pipetting up and down and incubated for 30 min at room temperature in the dark. Finally, cells were washed three times and resuspended in 200 μL of PBS for flow cytometric analysis.
In general terms: A flow cytometer gives signals particle by particle.

A further experiment concerns MYC protein. The experiment in a line: MYC Protein Expression HTRF Assay in MV4-11 cells. Format: cell-based. The settings on record: Homo sapiens, 24 hr treatment. The method, then:
MYC protein expression was measured using the Human c-Myc Cell-based Assay Kit (Cisbio, #63ADK053PEG), a homogeneous time resolved fluorescence (HTRF) assay. […] Cells were collected by centrifugation, supernatant removed by aspiration and 10 μL of lysis buffer was added and incubated for 45 min at room temperature while shaking. In a 384-well plate, 10 μL of cell lysate/well was combined with 10 μL of premixed antibody solution containing anti-human MYC-Eu3+ Cryptate prepared in detection buffer and incubated overnight at room temperature, whereupon the signal was measured. The ratio of the acceptor and donor emission signals for each individual well were calculated (ratio=665 nm/620 nm[…]).
(In TR-FRET formats the signal depends on donor and acceptor labels being close together.)

The next experiment has as its target T2, BRD4 (BD1+BD2) (Homo sapiens, UniProt O60885).
T2 construct: 1.8 μg/ml recombinant BRD4 (BD1+BD2 domains) protein
The experiment in a line: BRD4 (BD1 + BD2) Binding HTRF Assay. The settings on record: read-out: BRD4 Binding Potency. The procedure: A master mix was prepared with assay buffer, 1.8 μg/ml recombinant BRD4 (BD1+BD2 domains) protein, and 200-fold dilutions of Tb-labeled donor and dye-labeled acceptor. 40-fold dilutions of acetylated and non-acetylated ligands were prepared in 1×BRD TR-FRET assay buffer. Also, a serial 3-fold dilution of each compound was prepared ranging from 40 μM down until 2.0 nM. In a 384-well plate, 5 μl diluted ligand and 5 μl of compound dilution were added per well to duplicate wells and mixed by brief shaking. Then 10 μl of master mix was added per well, mixed by brief shaking, incubated at 25° C. for 2 hr and fluorescence was measured on an En Vision Plate Reader. The 665 nm/615 nm ratio was calculated from EnVision raw data. Data were normalized using whole-plate averages of “positive” and “negative” readings. A four-parameter “log[inhibitor] vs. response” curve was fitted using GraphPad Prism 7.0.

Turning to `Cc1sc2c(c1C)C(c1ccc(Cl)cc1)=N[C@@H](CC(=O)NC(C)c1ccc(CN3CCC(Cc4ccc(-n5c(O)nnc5-c5cc(C(C)C)c(O)cc5O)cc4)CC3)cc1)c1nnc(C)n1-2` (stereo in doubt) [Compound 82, 2-((S)-4-(4-chlorophenyl)-2,3,9-trimethyl-6H-thieno[3,2-f][1,2,4]triazolo[4,3-a][1,4]diazepin-6-yl)-N—((R)-1-(4-((4-(4-(3-(2,4-dihydroxy-5-isopropylphenyl)-5-hydroxy-4H-1,2,4-triazol-4-yl)benzyl)piperidin-1-yl)methyl)phenyl)ethyl)acetamide hydrochloride], the pIC50 on HSP90α is 6.00 to 7.00; in the experiment with MV4-11 cells (MV4-11, 72 hr, CCK-8) it was greater than 7.00.
On to `Cc1sc2c(c1C)C(c1ccc(Cl)cc1)=N[C@H](CC(=O)N1CCC(CN3CCN(Cc4ccc(-n5c(O)nnc5-c5cc(C(C)C)c(O)cc5O)cc4)CC3)CC1)c1nnc(C)n1-2` [Compound 5, 2-((6R)-4-(4-chlorophenyl)-2,3,9-trimethyl-6H-thieno[3,2-f][1,2,4]triazolo[4,3-a][1,4]diazepin-6-yl)-1-(4-((4-(4-(3-(2,4-dihydroxy-5-isopropylphenyl)-5-hydroxy-4H-1,2,4-triazol-4-yl)benzyl)piperazin-1-yl)methyl)piperidin-1-yl)ethanone, trifluoroacetic acid], for which, on BRD4 (MV4-11 cells), the “Percentage BRD4 degradation vs untreated” value was “C (Degradation < 10%)”. On BRD4 (MV4-11 cells, flow cytometry), the “BRD4 degradation (in words)” value is recorded as “does not degrade BRD4”. The pIC50 is greater than 7.00 in the experiment with MYC protein and greater than 7.00 in the experiment with MV4-11 cells (MV4-11, 72 h).
In the case of `Cc1sc2c(c1C)C(c1ccc(Cl)cc1)=N[C@@H](CC(=O)N1CCC(CN3CCN(Cc4ccc(-n5c(O)nnc5-c5cc(C(C)C)c(O)cc5O)cc4)CC3)CC1)c1nnc(C)n1-2` [Compound 40, 2-((6S)-4-(4-chlorophenyl)-2,3,9-trimethyl-6H-thieno[3,2-f][1,2,4]triazolo[4,3-a][1,4]diazepin-6-yl)-1-(4-((4-(4-(3-(2,4-dihydroxy-5-isopropylphenyl)-5-hydroxy-4H-1,2,4-triazol-4-yl)benzyl)piperazin-1-yl)methyl)piperidin-1-yl)ethanone, trifluoroacetic acid], on BRD4 (MV4-11 cells), the “Percentage BRD4 degradation vs untreated” value is listed as “A (Degradation > 50%)”. For the same molecule, the “ability to degrade BRD4 after pretreatment” value on BRD4 (cells pretreated with a combination of a HSP90 binder and (+)-JQ1) is given as “significantly reduced”. The pIC50 in the experiment with MYC protein is greater than 7.00.
Turning to `Cc1sc2c(c1C)C(c1ccc(Cl)cc1)=N[C@@H](CCN1CCC(CN3CCN(Cc4ccc(-n5c(O)nnc5-c5cc(C(C)C)c(O)cc5O)cc4)CC3)CC1)c1nnc(C)n1-2` [Compound 76, trifluoroacetic acid], the pIC50 at BRD4 (BD1+BD2) was less than 6.00; at HSP90α, 6.00 to 7.00; in the experiment on MV4-11 cells (MV4-11, 72 h), greater than 7.00.
